{
  "source": "paper PMC9010562",
  "about": "“Designing a Novel Functional Peptide With Dual Antimicrobial and Anti-inflammatory Activities via in Silico Methods” (Frontiers in Immunology, 2022)",
  "key": {"H460 cells": {"test_system": "H460 cells", "assay": "WST-8 cell viability assay", "format": "cell-based, human", "details": "WST-8, 24 h treatment", "source_text": "(§1) Every strain used in the study was purchased from the Korean Culture Center of Microorganisms (KCCM, Seoul, Korea) or the American Type Culture Collection (ATCC, Manassas, VA, USA). The following bacterial strains were used in this study: Escherichia coli KCCM 11234 (E. coli), Pseudomonas aeruginosa ATCC 9027 (P. aeruginosa), Bacillus cereus KCCM 21366 (B. cereus), Staphylococcus aureus KCCM 11335 (S. aureus), and methicillin-resistant S. aureus ATCC 33591 (MRSA). Bacterial strains were maintained in tryptic soy broth (TSB, Difco Laboratories, Detroit, MI, USA) and cultured under shaking incubation at 37°C. In addition, the following human cell lines were used in this study: THP-1 monocytes (ATCC TIB-202), primary adipose-derived mesenchymal stem cell (hADMSC; CEFO Co., Seoul, Korea), normal bronchial epithelial cells BEAS-2B (ATCC CRL-9609), and lung carcinoma cells H460 (ATCC HTB-177). THP-1 and H460 cells were cultured in RPMI 1640 medium (Welgene Inc., Gyeongsan, Gyeongsangbuk-do, Korea) supplemented with 10% fetal bovine serum (Gibco), 1% penicillin and streptomycin (Gibco), and sodium pyruvate (Welgene Inc.). hADMSC and BEAS-2B cells were cultured in CEFOgro™ Human MSC Growth Medium (CEFO Co.) and BEGM™ Bronchial Epithelial Cell Growth Medium BulletKit™ (Lonza, Basel, Switzerland), respectively. The cells were maintained under humidified air with 5% CO2 at 37°C.\n(§2) THP-1, hADMSC, BEAS-2B, and H460 cells were seeded in 96-well plates at a density of 1×10^5 cells/mL to evaluate the cytotoxic effect of the peptides. Different concentrations of peptide were treated and incubated for 24 h. Quanti-Max WST-8 Cell Viability assay solution (Biomax, Seoul, Korea) was added to each well, and then the plate was incubated for 1 h. The absorbance was read at 450 nm using a microplate reader (Molecular Devices), and the relative cell viability was calculated."}, "BEAS-2B cells": {"test_system": "BEAS-2B cells", "assay": "WST-8 cell viability assay", "format": "cell-based, human", "details": "WST-8, 24 h treatment", "source_text": "as §1, §2"}, "THP-1 cells": {"test_system": "THP-1 cells", "assay": "WST-8 cell viability assay", "format": "cell-based, human", "details": "WST-8, 24 h treatment", "source_text": "as §1, §2"}, "hADMSC cells": {"test_system": "hADMSC cells", "assay": "WST-8 cell viability assay", "format": "cell-based, human", "details": "WST-8, 24 h treatment", "source_text": "as §1, §2"}, "[1]": {"assay": "Serum stability test (SDS-PAGE)", "format": "in vitro ADME", "details": "25 μg peptide in 20 μL with 10% human serum (also 2%, 5%), 37°C, 12 h (also 1, 4 h); SDS-PAGE 12% gel, Coomassie staining", "procedure": "Peptide stability in human serum (HS, Sigma-Aldrich) was tested by sodium dodecyl sulfate-polyacrylamide gel electrophoresis (SDS-PAGE) ([25]). 25 μg of peptides were incubated with 2%, 5%, and 10% of HS in a total volume of 20μL. The samples, peptide control, HS controls were incubated at 37°C for 1, 4, 12 h and were mixed with 5 × protein sample buffer. The samples were loaded in 12% SDS gel along with Prosi prestained protein marker (GenDEPOT, Katy, TX, USA). After separation, gels were stained with Coomassie Brilliant Blue R-250 staining solution (Bio-Rad, Hercules, CA, USA). Gels were destained and imaged by ChemiDoc™ Imaging Systems (Bio-Rad)."}, "[2]": {"test_system": "methicillin-resistant S. aureus ATCC 33591 (MRSA)", "format": "cell-based, Staphylococcus aureus", "details": "two-fold broth microdilution in MHB, 2×10^5 CFU/mL, 37°C, 18 h (24 h in the source), OD 600 nm; triplicate", "source_text": "as §1, with “THP-1 and H460 cells were cultured in RPMI 1640 medium (Welgene Inc., Gyeongsan, Gyeongsangbuk-do, Korea) supplemented with 10% fetal bovine serum (Gibco), 1% penicillin and streptomycin (Gibco), and sodium pyruvate (Welgene Inc.). hADMSC and BEAS-2B cells were cultured in CEFOgro™ Human MSC Growth Medium (CEFO Co.) and BEGM™ Bronchial Epithelial Cell Growth Medium BulletKit™ (Lonza, Basel, Switzerland), respectively. The cells were maintained under humidified air with 5% CO2 at 37°C.” left out\nTwo-fold broth microdilution assays were performed to measure the MIC values of the peptides. […] The plates were incubated at 37°C for 18 h, and the bacterial growth was measured at 600 nm using a microplate reader (Molecular Devices, Sunnyvale, CA, USA). […] Relative colony formation was measured by counting colonies formed on agar plates, and was compared with the control plate for the relative expression."}, "[3]": {"test_system": "Staphylococcus aureus KCCM 11335", "format": "cell-based", "details": "two-fold broth microdilution in MHB, 2×10^5 CFU/mL, 37°C, 18 h (24 h in the source), OD 600 nm; triplicate", "source_text": "as §1\n(§3) Two-fold broth microdilution assays were performed to measure the MIC values of the peptides. In brief, the strains were grown to an exponential phase in MHB at 37°C and then diluted to reach 2×10^5 CFU/mL in fresh media. Peptides were serially diluted in PBS and then added of 50 μL/well to a 96-well plate. An equal volume of bacterial suspensions was added to each well, resulting in final concentrations of peptides ranging from 1 to 32 μM. The wells only with the medium served as blank, while adding the medium to inoculant was used as control. The plates were incubated at 37°C for 18 h, and the bacterial growth was measured at 600 nm using a microplate reader (Molecular Devices, Sunnyvale, CA, USA). […] To perform colony forming assay, different concentrations of peptides were mixed with an equal volume of bacterial suspensions, resulting in 2×10^5 CFU/mL. The samples were spread onto tryptic soy agar (TSA, Difco Laboratories) plates after 3 h incubation and incubated overnight at 37°C. Relative colony formation was measured by counting colonies formed on agar plates, and was compared with the control plate for the relative expression."}, "[4]": {"test_system": "Bacillus cereus KCCM 21366", "format": "cell-based", "details": "two-fold broth microdilution in MHB, 2×10^5 CFU/mL, 37°C, 18 h (24 h in the source), OD 600 nm; triplicate", "source_text": "as §1, §3"}, "[5]": {"test_system": "Escherichia coli KCCM 11234", "format": "cell-based", "details": "two-fold broth microdilution in MHB, 2×10^5 CFU/mL, 37°C, 18 h (24 h in the source), OD 600 nm; triplicate", "source_text": "as §1, §3"}, "[6]": {"test_system": "Pseudomonas aeruginosa ATCC 9027", "format": "cell-based", "details": "two-fold broth microdilution in MHB, 2×10^5 CFU/mL, 37°C, 18 h (24 h in the source), OD 600 nm; triplicate", "source_text": "as §1, §3"}, "bovine red blood cells": {"test_system": "bovine red blood cells", "assay": "Hemolytic activity", "format": "cell-based", "details": "bovine RBCs 4% (v/v) in PBS, peptide up to 50 μM, 37°C 1 h, relative to 0.1% Triton X-100 (100%), absorbance 450 nm", "procedure": "The hemolytic activity of the peptide was tested using bovine red blood cells (RBCs) purchased from Innovative Research (Novi, MI, USA). RBCs were diluted in PBS to obtain a 4% (v/v) suspension and were aliquoted at 100 μL per microtube. The RBC suspensions were mixed with an equal volume of 2-fold peptides and incubated at 37°C for 1 h. PBS and 0.1% Triton X-100 served as the negative control (0% hemolysis) and positive control (100% hemolysis), respectively. The tubes were centrifuged at 3,000 × g for 10 min at 4°C, and the supernatants were transferred to a 96-well microplate. The absorbance (Ab) was measured at 450 nm using a microplate reader (Molecular Devices). The hemolytic activity of each peptide was calculated by (Abpeptide – AbPBS)/(AbTriton X-100 – AbPBS) × 100."}},
  "note": "Ends that are not written are not given here.",
  "data": [
    {"sequence": "FKGLAKLLKIGLKALAKVIQ [Ak-N’]", "values": [
      {"measurement": "Concentration from which cell viability was significantly affected, H460", "setting": "H460 cells", "result": 500, "unit": "nM"},
      {"measurement": "Concentration from which a significant cytotoxic effect was seen, BEAS-2B (normal cell line)", "setting": "BEAS-2B cells", "result": 2000, "unit": "nM"},
      {"measurement": "Concentration from which a significant cytotoxic effect was seen, THP-1", "setting": "THP-1 cells", "result": 5000, "unit": "nM"},
      {"measurement": "Concentration from which a significant cytotoxic effect was seen, hADMSC (primary cell line)", "setting": "hADMSC cells", "result": 2000, "unit": "nM"},
      {"measurement": "Stability in human serum", "setting": "[1]", "result": "exhibited stability"},
      {"measurement": "MIC MRSA", "setting": "[2]", "result": 2, "unit": "µM"},
      {"measurement": "MIC S. aureus", "setting": "[3]", "result": 0.2, "unit": "µM"},
      {"measurement": "MIC B. cereus", "setting": "[4]", "result": 4, "unit": "µM"},
      {"measurement": "MIC E. coli", "setting": "[5]", "result": 2, "unit": "µM"},
      {"measurement": "MIC P. aeruginosa", "setting": "[6]", "result": 2, "unit": "µM"},
      {"measurement": "Hemolysis", "setting": "bovine red blood cells", "result": "over 50%"}
    ]},
    {"sequence": "NKGLAKLLKIGLKALESVIQ [Ak-N’m]", "values": [
      {"measurement": "Concentration up to which cell viability was not affected, H460", "setting": "H460 cells", "result": 2000, "unit": "nM"},
      {"measurement": "Concentration up to which cell viability was not affected, BEAS-2B", "setting": "BEAS-2B cells", "result": 2000, "unit": "nM"},
      {"measurement": "Concentration up to which cell viability was not affected, THP-1", "setting": "THP-1 cells", "result": 10000, "unit": "nM"},
      {"measurement": "Concentration up to which cell viability was not affected, hADMSC", "setting": "hADMSC cells", "result": 2000, "unit": "nM"},
      {"measurement": "Stability in human serum", "setting": "[1]", "result": "exhibited stability"},
      {"measurement": "MIC MRSA", "setting": "[2]", "result": 32, "unit": "µM"},
      {"measurement": "MIC S. aureus", "setting": "[3]", "result": 8, "unit": "µM"},
      {"measurement": "MIC B. cereus", "setting": "[4]", "result": 32, "unit": "µM"},
      {"measurement": "MIC E. coli", "setting": "[5]", "result": 2, "unit": "µM"},
      {"measurement": "MIC P. aeruginosa", "setting": "[6]", "result": 8, "unit": "µM"},
      {"measurement": "Hemolysis", "setting": "bovine red blood cells", "result": "below 5%"}
    ]}
  ]
}
